Measured values from patent US20260234157A1, “COMPOUND AND METHOD FOR TARGETED DEGRADATION OF ANDROGEN RECEPTOR” (Gan & Lee Pharmaceuticals Co., Ltd., priority 2023, published 2026).

Target: T1, AR protein (Homo sapiens, UniProt P10275, T878A)
T1 construct: degradation activity of the compounds disclosed in the present disclosure on AR protein in LNCaP cells; host or cells: LNCaP FGC
T1 sequence (P10275 1-920 T878A): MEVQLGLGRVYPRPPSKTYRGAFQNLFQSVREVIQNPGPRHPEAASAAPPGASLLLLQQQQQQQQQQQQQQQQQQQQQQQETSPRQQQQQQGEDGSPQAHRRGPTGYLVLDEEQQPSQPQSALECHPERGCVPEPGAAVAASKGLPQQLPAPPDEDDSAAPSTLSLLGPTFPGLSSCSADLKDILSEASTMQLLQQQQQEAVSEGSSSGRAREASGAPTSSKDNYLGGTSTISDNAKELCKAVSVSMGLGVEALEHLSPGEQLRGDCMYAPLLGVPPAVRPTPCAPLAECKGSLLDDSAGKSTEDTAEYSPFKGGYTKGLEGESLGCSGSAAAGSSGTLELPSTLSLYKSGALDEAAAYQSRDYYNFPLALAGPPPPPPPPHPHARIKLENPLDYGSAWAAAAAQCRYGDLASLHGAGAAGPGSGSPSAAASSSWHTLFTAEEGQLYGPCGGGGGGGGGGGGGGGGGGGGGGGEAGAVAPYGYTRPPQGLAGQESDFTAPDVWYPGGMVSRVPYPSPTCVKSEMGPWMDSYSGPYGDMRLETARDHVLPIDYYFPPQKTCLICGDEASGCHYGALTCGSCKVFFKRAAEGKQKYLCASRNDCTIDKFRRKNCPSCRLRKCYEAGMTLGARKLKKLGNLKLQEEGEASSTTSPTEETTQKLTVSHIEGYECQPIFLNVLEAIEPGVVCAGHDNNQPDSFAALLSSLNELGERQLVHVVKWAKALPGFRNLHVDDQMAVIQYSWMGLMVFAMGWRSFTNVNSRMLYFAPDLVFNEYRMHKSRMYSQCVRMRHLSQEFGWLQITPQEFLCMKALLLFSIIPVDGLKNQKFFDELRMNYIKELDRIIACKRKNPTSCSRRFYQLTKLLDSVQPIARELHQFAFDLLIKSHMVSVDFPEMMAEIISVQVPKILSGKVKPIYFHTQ
Assay: Degradation of AR protein in LNCaP cells (Western blot)
Format: cell-based
Conditions: LNCaP cells, compound 10 nM, 8 hours, Western blot grayscale, GAPDH internal reference; read-out: Degradation rates of the AR protein in LNCaP cells, 10 nM (%)
Outline: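 AR assessed by SDS-PAGE/Western blot with infrared imaging; band greyscale normalised to GAPDH gave percent degradation.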

Row | SMILES | inhibition at 0.01 µM [%]
1 | N#Cc1ccc(O[C@H]2CC[C@H](NC(=O)c3ccc(N4CCN(C5CCC6(CCc7cc8c(cc7O6)C(=O)N(C6CCC(=O)NC6=O)C8=O)CC5)CC4)nn3)CC2)cc1Cl (some centres unmarked) [Compound 29] | 35
2 | N#Cc1ccc(O[C@H]2CC[C@H](NC(=O)c3ccc(N4CCC5(CC4)COc4cc6c(cc4O5)C(=O)N(C4CCC(=O)NC4=O)C6=O)nn3)CC2)cc1Cl (some centres unmarked) [Compound 75] | 41
3 | N#Cc1ccc(O[C@H]2CC[C@H](NC(=O)c3ccc(N4CCC(N5CCC(C(=O)N6CCC7(CC6)COc6c7ccc7c6CN(C6CCC(=O)NC6=O)C7=O)CC5)CC4)nn3)CC2)cc1Cl (some centres unmarked) [Compound 160] | 67

Same assay, conditions: LNCaP cells, compound 100 nM, 8 hours, Western blot grayscale, GAPDH internal reference; read-out: Degradation rates of the AR protein in LNCaP cells, 100 nM (%)

Row | SMILES | inhibition at 0.1 µM [%]
4 | N#Cc1ccc(O[C@H]2CC[C@H](NC(=O)c3ccc(N4CCN(C5CCC6(CCc7cc8c(cc7O6)C(=O)N(C6CCC(=O)NC6=O)C8=O)CC5)CC4)nn3)CC2)cc1Cl (some centres unmarked) [Compound 29] | 63
5 | N#Cc1ccc(O[C@H]2CC[C@H](NC(=O)c3ccc(N4CCC5(CC4)COc4cc6c(cc4O5)C(=O)N(C4CCC(=O)NC4=O)C6=O)nn3)CC2)cc1Cl (some centres unmarked) [Compound 75] | 36
6 | N#Cc1ccc(O[C@H]2CC[C@H](NC(=O)c3ccc(N4CCC(N5CCC(C(=O)N6CCC7(CC6)COc6c7ccc7c6CN(C6CCC(=O)NC6=O)C7=O)CC5)CC4)nn3)CC2)cc1Cl (some centres unmarked) [Compound 160] | 76

Same assay, conditions: LNCaP, 8 h, read-out: Degradation rates of the AR protein in LNCaP cells, 10 nM (%)

Row | SMILES | inhibition at 0.01 µM [%]
7 | N#Cc1ccc(O[C@H]2CC[C@H](NC(=O)c3ccc(N4CC(N5CCC6(CC5)Oc5cc7c(cc5CC6(F)F)C(=O)N(C5CCC(=O)NC5=O)C7=O)C4)nn3)CC2)cc1Cl (some centres unmarked) [Compound 37] | 5
8 | N#Cc1ccc(O[C@H]2CC[C@H](NC(=O)c3ccc(N4CCC(N5CCC6(CC5)CC(F)(F)c5cc7c(cc5O6)C(=O)N(C5CCC(=O)NC5=O)C7=O)CC4)nn3)CC2)cc1Cl (some centres unmarked) [Compound 38] | 29

Same assay, conditions: LNCaP, 8 h, read-out: Degradation rates of the AR protein in LNCaP cells, 100 nM (%)

Row | SMILES | inhibition at 0.1 µM [%]
9 | N#Cc1ccc(O[C@H]2CC[C@H](NC(=O)c3ccc(N4CC(N5CCC6(CC5)Oc5cc7c(cc5CC6(F)F)C(=O)N(C5CCC(=O)NC5=O)C7=O)C4)nn3)CC2)cc1Cl (some centres unmarked) [Compound 37] | 29
10 | N#Cc1ccc(O[C@H]2CC[C@H](NC(=O)c3ccc(N4CCC(N5CCC6(CC5)CC(F)(F)c5cc7c(cc5O6)C(=O)N(C5CCC(=O)NC5=O)C7=O)CC4)nn3)CC2)cc1Cl (some centres unmarked) [Compound 38] | 48

Test system: LNCaP FGC cells
Assay: Inhibition of proliferation of LNCaP cells (WST-8)
Format: cell-based
Conditions: Homo sapiens, LNCaP, 96 h, LNCaP FGC cells, 96 hours, WST-8 absorbance at 450 nm; read-out: IC50 for inhibiting the proliferation of LNCaP cells
Procedure: The cells were cultured in a cell culture incubator with 5% CO2 at 37° C. overnight. […] On the sixth day, 96 well plates were taken out, and 20 μL of WST-8 (Beytime, C0040) reagent was added to each well.

Row | SMILES | IC50 [µM]
11 | N#Cc1ccc(O[C@H]2CC[C@H](NC(=O)c3ccc(N4CCN(C5CCC6(CCc7cc8c(cc7O6)C(=O)N(C6CCC(=O)NC6=O)C8=O)CC5)CC4)nn3)CC2)cc1Cl (some centres unmarked) [Compound 29] | 0.93
12 | N#Cc1ccc(O[C@H]2CC[C@H](NC(=O)c3ccc(N4CCC5(CC4)COc4cc6c(cc4O5)C(=O)N(C4CCC(=O)NC4=O)C6=O)nn3)CC2)cc1Cl (some centres unmarked) [Compound 75] | 6.05
13 | CC1(C)C(=O)N(c2ccc(C#N)c(C(F)(F)F)c2)C(=S)N1c1ccc(C(=O)N2CCC(CN3CCN(c4cc5c(cc4F)C(=O)N(C4CCC(=O)NC4=O)C5=O)CC3)CC2)c(F)c1 (centres unmarked) [Compound 87] | 5.16
14 | COC1(CN2CC3(CCc4cc5c(cc4O3)C(=O)N(C3CCC(=O)NC3=O)C5=O)C2)CCN(C(=O)c2ccc(N3C(=S)N(c4ccc(C#N)c(C(F)(F)F)c4)C(=O)C3(C)C)cc2F)CC1 (centres unmarked) [Compound 88] | 0.53
15 | CC1(C)C(=O)N(c2ccc(C#N)c(C(F)(F)F)c2)C(=S)N1c1ccc(C(=O)N2CCC(CN3CC4(CCc5cc6c(cc5O4)CN(C4CCC(=O)NC4=O)C6=O)C3)CC2)c(F)c1 (centres unmarked) [Compound 124] | 7.91
16 | COC1(CN2CCC3(CCc4cc5c(cc4O3)C(=O)N(C3CCC(=O)NC3=O)C5)CC2)CCN(c2ccc(C(=O)N[C@H]3CC[C@H](Oc4ccc(C#N)c(Cl)c4)CC3)nn2)CC1 (some centres unmarked) [Compound 131] | 4.55
17 | N#Cc1ccc(O[C@H]2CC[C@H](NC(=O)c3ccc(N4CCC5(CC4)CC(N4CCC6(CC4)COc4c6ccc6c4C(=O)N(C4CCC(=O)NC4=O)C6=O)C5)nn3)CC2)cc1Cl (some centres unmarked) [Compound 143] | 0.35
18 | N#Cc1ccc(O[C@H]2CC[C@H](NC(=O)c3ccc(N4CCC(N5CCC(C(=O)N6CCC7(CC6)COc6c7ccc7c6CN(C6CCC(=O)NC6=O)C7=O)CC5)CC4)nn3)CC2)cc1Cl (some centres unmarked) [Compound 160] | 59.9
19 | N#Cc1ccc(O[C@H]2CC[C@H](NC(=O)c3ccc(N4CCC(F)(CN5CCC6(CCc7ccc8c(c7O6)C(=O)N(C6CCC(=O)NC6=O)C8)CC5)CC4)nn3)CC2)cc1Cl (some centres unmarked) [Compound 163] | 13.6

Same assay, conditions: Homo sapiens, LNCaP, 96 h, read-out: IC50 for inhibiting the proliferation of LNCaP cells, LNCaP FGC cells, 96 hours, WST-8 absorbance at 450 nm

Row | SMILES | IC50 [µM]
20 | N#Cc1ccc(O[C@H]2CC[C@H](NC(=O)c3ccc(N4CC(N5CCC6(CC5)Oc5cc7c(cc5CC6(F)F)C(=O)N(C5CCC(=O)NC5=O)C7=O)C4)nn3)CC2)cc1Cl (some centres unmarked) [Compound 37] | 4.53
21 | N#Cc1ccc(O[C@H]2CC[C@H](NC(=O)c3ccc(N4CCC(N5CCC6(CC5)CC(F)(F)c5cc7c(cc5O6)C(=O)N(C5CCC(=O)NC5=O)C7=O)CC4)nn3)CC2)cc1Cl (some centres unmarked) [Compound 38] | 2.4

Test system: VCaP cells
Assay: Inhibition of proliferation of VCaP cells (WST-8)
Format: cell-based
Conditions: Homo sapiens, VCaP, 168 h, read-out: IC50 for inhibiting the proliferation of VCaP cells
Procedure: The inhibitory activity of the compounds disclosed in the present disclosure on the proliferation of VCaP cells
On the first day of the experiment, […] were inoculated in 96 well plates at a density of 15000 cells per well using DMEM medium containing 10% fetal bovine serum, with 100 μL of cell suspension per well. The cells were cultured in a cell culture incubator with 5% CO2 at 37° C. overnight. […] On the ninth day, 96 well plates were taken out, and 20 μL of WST-8 (Beytime, C0040) reagent was added to each well.

Row | SMILES | IC50 [µM]
22 | N#Cc1ccc(O[C@H]2CC[C@H](NC(=O)c3ccc(N4CC(N5CCC6(CC5)Oc5cc7c(cc5CC6(F)F)C(=O)N(C5CCC(=O)NC5=O)C7=O)C4)nn3)CC2)cc1Cl (some centres unmarked) [Compound 37] | 3.23
23 | N#Cc1ccc(O[C@H]2CC[C@H](NC(=O)c3ccc(N4CCC(N5CCC6(CC5)CC(F)(F)c5cc7c(cc5O6)C(=O)N(C5CCC(=O)NC5=O)C7=O)CC4)nn3)CC2)cc1Cl (some centres unmarked) [Compound 38] | 5.29

Same assay, conditions: Homo sapiens; VCaP cells, 168 hours, WST-8 absorbance at 450 nm; read-out: IC50 for inhibiting the proliferation of VCaP cells

Row | SMILES | IC50 [µM]
24 | N#Cc1ccc(O[C@H]2CC[C@H](NC(=O)c3ccc(N4CCN(C5CCC6(CCc7cc8c(cc7O6)C(=O)N(C6CCC(=O)NC6=O)C8=O)CC5)CC4)nn3)CC2)cc1Cl (some centres unmarked) [Compound 29] | 1.2
25 | N#Cc1ccc(O[C@H]2CC[C@H](NC(=O)c3ccc(N4CCC5(CC4)COc4cc6c(cc4O5)C(=O)N(C4CCC(=O)NC4=O)C6=O)nn3)CC2)cc1Cl (some centres unmarked) [Compound 75] | 7.4
26 | CC1(C)C(=O)N(c2ccc(C#N)c(C(F)(F)F)c2)C(=S)N1c1ccc(C(=O)N2CCC(CN3CCN(c4cc5c(cc4F)C(=O)N(C4CCC(=O)NC4=O)C5=O)CC3)CC2)c(F)c1 (centres unmarked) [Compound 87] | 4.19
27 | COC1(CN2CC3(CCc4cc5c(cc4O3)C(=O)N(C3CCC(=O)NC3=O)C5=O)C2)CCN(C(=O)c2ccc(N3C(=S)N(c4ccc(C#N)c(C(F)(F)F)c4)C(=O)C3(C)C)cc2F)CC1 (centres unmarked) [Compound 88] | 0.17
28 | CC1(C)C(=O)N(c2ccc(C#N)c(C(F)(F)F)c2)C(=S)N1c1ccc(C(=O)N2CCC(CN3CC4(CCc5cc6c(cc5O4)CN(C4CCC(=O)NC4=O)C6=O)C3)CC2)c(F)c1 (centres unmarked) [Compound 124] | 2.96
29 | COC1(CN2CCC3(CCc4cc5c(cc4O3)C(=O)N(C3CCC(=O)NC3=O)C5)CC2)CCN(c2ccc(C(=O)N[C@H]3CC[C@H](Oc4ccc(C#N)c(Cl)c4)CC3)nn2)CC1 (some centres unmarked) [Compound 131] | 2.27
30 | N#Cc1ccc(O[C@H]2CC[C@H](NC(=O)c3ccc(N4CCC5(CC4)CC(N4CCC6(CC4)COc4c6ccc6c4C(=O)N(C4CCC(=O)NC4=O)C6=O)C5)nn3)CC2)cc1Cl (some centres unmarked) [Compound 143] | 0.02
31 | N#Cc1ccc(O[C@H]2CC[C@H](NC(=O)c3ccc(N4CCC(N5CCC(C(=O)N6CCC7(CC6)COc6c7ccc7c6CN(C6CCC(=O)NC6=O)C7=O)CC5)CC4)nn3)CC2)cc1Cl (some centres unmarked) [Compound 160] | 0.002
32 | N#Cc1ccc(O[C@H]2CC[C@H](NC(=O)c3ccc(N4CCC(F)(CN5CCC6(CCc7ccc8c(c7O6)C(=O)N(C6CCC(=O)NC6=O)C8)CC5)CC4)nn3)CC2)cc1Cl (some centres unmarked) [Compound 163] | 0.65
